The target in experiment [1] is T1, PFI-011 (Homo sapiens, UniProt Q8TDT2).
T1 construct: expressed in transfected cells
Description: Functional assay measuring intracellular calcium mobilisation (FLIPR). It counts as cell-based. Particulars: PFI-011-transfected cells compared to mock-transfected cells; Fluo3, FLIPR. How it is done:
5×10^6 cells of a suitable host cell line, chosen to express a low number of endogenous receptors (e.g. HEK293 or CHO-K1) and engineered to stably express certain Gα proteins (e.g. mouse Gα15 (Wilkie, T. M. et al (1991) Proc. Natl. Acad. Sci. 88, 10049-10053), a chimeric Gql5/Gql5 α-subunit, or human Gα16 (Amatruda, TT 3rd et al (1991) Proc. Natl. Acad. Sci. 88, 5587-5591)), were transiently transfected with 7.5 μg of cDNA encoding PFI-011 in a suitable mammalian cell expression vector, or vector alone, using Lipofectamine Plus® reagent (Gibco BRL) as per the manufacturer's protocol. […]
Fluorescence Imaging Plate Reader (FLIPR®) technology was employed as a means to detect activation of PFI-011 by various potential GPCR agonists.
Cells were transfected as described in Example 3. […] The FLIPR® processing involved reading the fluorescence for all samples for 2 minutes; during this time the fluorescence baseline was determined for 10 seconds. The desired amount of compounds (i.e. potential GPCR agonists) was then automatically transferred to the wells and the fluorescence was continuously monitored for the remainder of the time. […]
Compounds capable of acting as agonists for the receptor were identified by them causing a transient rise in fluorescence, and therefore in intracellular calcium, in the cells.
For orientation: Calcium flux is commonly read through the fluorescence of an indicator in the cells.

Experiment [2] deals with oxygenation of arachidonic acid. Particulars: cited from earlier work.
The test system of experiment [3] is rabbits. Particulars: cited from earlier work.

“Also recorded” adds a separate entry of the source.

T1 sequence (Q8TDT2 whole entry): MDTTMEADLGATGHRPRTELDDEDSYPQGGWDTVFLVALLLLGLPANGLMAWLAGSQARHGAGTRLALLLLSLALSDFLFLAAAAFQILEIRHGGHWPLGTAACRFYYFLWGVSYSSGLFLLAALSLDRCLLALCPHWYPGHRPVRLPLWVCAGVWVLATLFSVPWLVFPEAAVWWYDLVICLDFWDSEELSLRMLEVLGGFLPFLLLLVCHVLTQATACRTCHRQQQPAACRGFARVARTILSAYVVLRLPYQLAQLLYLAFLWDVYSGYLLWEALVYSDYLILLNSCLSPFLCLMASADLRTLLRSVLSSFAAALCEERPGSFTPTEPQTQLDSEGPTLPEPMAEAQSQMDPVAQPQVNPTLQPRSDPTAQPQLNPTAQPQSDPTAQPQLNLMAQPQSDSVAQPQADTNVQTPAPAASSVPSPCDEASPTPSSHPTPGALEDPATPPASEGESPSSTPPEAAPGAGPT

As to `CCCCC/C=C\C/C=C\C/C=C\C/C=C\CCCCCC(=O)O` [adrenic acid], in experiment [1], the “response of PFI-011-expressing cells (fluorescence change over time, transient rise in intracellular calcium)” value is “response of PFI-011-expressing cells to adrenic acid; also recorded: responds to adrenic acid”. In addition, the “oxygenation of arachidonic acid; synthesis of prostaglandins PGF2, PGE2 & PGD2” value in experiment [2] is reported as “inhibit the oxygenation of arachidonic acid”. For the same molecule, in experiment [3], the “blood pressure and renal flow” value was “reduce blood pressure and renal flow”.
